Measurements from patent publication US11117900B2 (Vertex Pharmaceuticals Incorporated, priority 2012, dated 2021).

Tested on: HCT116 colorectal cancer cells
Assay: Cisplatin sensitization assay (96 h MTS cell viability);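 further: compound concentration needed to lower the IC50 of Cisplatin alone by a set fold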
Type: cell-based
Conditions: Cisplatin sensitization value
Summary of the method: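 The MTS viability read, after 1 h with reagent, followed 96 h of co-treatment at 37° C. in 5% CO2. Both compound and cisplatin were titrated 2-fold from a 10 μM top final concentration in a complete concentration matrix on HCT116 cells. Scores +++/++/+ reflect cisplatin sensitization value ranges.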

Structure (SMILES)	Cisplatin Sensitization Assay
CN(C)[C@@H]1CCN(C(=O)C2CCN(c3c(F)cncc3NC(=O)c3c(N)nn4cc(F)cnc34)CC2)C1 [I-G-11, (R)-2-amino-N-(4-(4-(3-(dimethylamino)pyrrolidine-1-carbonyl)piperidin-1-yl)-5-fluoropyridin-3-yl)-6-fluoropyrazolo[1,5-a]pyrimidine-3-carboxamide]	+++ (Compounds with a Cisplatin sensitization value of <0.02 μM are marked with “+++.”)
Nc1nn2cc(F)cnc2c1C(=O)Nc1cncc(F)c1N1CCC(C(=O)N2CCNCC2)CC1 [I-G-12, 2-amino-6-fluoro-N-(5-fluoro-4-(4-(piperazine-1-carbonyl)piperidin-1-yl)pyridin-3-yl)pyrazolo[1,5-a]pyrimidine-3-carboxamide]	+++ (Compounds with a Cisplatin sensitization value of <0.02 μM are marked with “+++.”)
Nc1nn2cc(F)cnc2c1C(=O)Nc1cncc(F)c1N1CCC(C(=O)N2CCN(C3CC3)CC2)CC1 [I-G-13, 2-amino-N-(4-(4-(4-cyclopropylpiperazine-1-carbonyl)piperidin-1-yl)-5-fluoropyridin-3-yl)-6-fluoropyrazolo[1,5-a]pyrimidine-3-carboxamide]	+++ (Compounds with a Cisplatin sensitization value of <0.02 μM are marked with “+++.”)
CN1CCN(C(=O)C2CCN(c3c(F)cncc3NC(=O)c3c(N)nn4cc(F)cnc34)CC2)CC1(C)C [I-G-15, 2-amino-6-fluoro-N-(5-fluoro-4-(4-(3,3,4-trimethylpiperazine-1-carbonyl)piperidin-1-yl)pyridin-3-yl)pyrazolo[1,5-a]pyrimidine-3-carboxamide]	+++ (Compounds with a Cisplatin sensitization value of <0.02 μM are marked with “+++.”)
CN(C)CCCN(C)C(=O)C1CCN(c2c(F)cncc2NC(=O)c2c(N)nn3cc(F)cnc23)CC1 [I-G-16, 2-amino-N-(4-(4-((3-(dimethylamino)propyl)(methyl)carbamoyl)piperidin-1-yl)-5-fluoropyridin-3-yl)-6-fluoropyrazolo[1,5-a]pyrimidine-3-carboxamide]	+++ (Compounds with a Cisplatin sensitization value of <0.02 μM are marked with “+++.”)
CNCCCN(C)C(=O)C1CCN(c2c(F)cncc2NC(=O)c2c(N)nn3cc(F)cnc23)CC1 [I-G-17]	+ (Compounds with a Cisplatin sensitization value >0.2 μM but <5 μM are marked with “+.”)
CN1CC2CN(C(=O)C3CCN(c4c(F)cncc4NC(=O)c4c(N)nn5cc(F)cnc45)CC3)CC2C1 (stereo not drawn) [I-G-18, 2-amino-6-fluoro-N-(5-fluoro-4-(4-(5-methyloctahydropyrrolo[3,4-c]pyrrole-2-carbonyl)piperidin-1-yl)pyridin-3-yl)pyrazolo[1,5-a]pyrimidine-3-carboxamide]	+++ (Compounds with a Cisplatin sensitization value of <0.02 μM are marked with “+++.”)
CC(C)(C)NC(=O)C1CCN(c2c(F)cncc2NC(=O)c2c(N)nn3cc(F)cnc23)CC1 [I-G-19, 2-amino-N-(4-(4-(tert-butylcarbamoyl)piperidin-1-yl)-5-fluoropyridin-3-yl)-6-fluoropyrazolo[1,5-a]pyrimidine-3-carboxamide]	++ (Compounds with a Cisplatin sensitization value >0.02 μM but <0.2 μM are marked with “++.”)
CN1CCC(NC(=O)C2CCN(c3c(F)cncc3NC(=O)c3c(N)nn4cc(F)cnc34)CC2)CC1 [I-G-20, 2-amino-6-fluoro-N-(5-fluoro-4-(4-((1-methylpiperidin-4-yl)carbamoyl)piperidin-1-yl)pyridin-3-yl)pyrazolo[1,5-a]pyrimidine-3-carboxamide]	+ (Compounds with a Cisplatin sensitization value >0.2 μM but <5 μM are marked with “+.”)
COC1CN(C(=O)C2CCN(c3c(F)cncc3NC(=O)c3c(N)nn4cc(F)cnc34)CC2)C1 [I-G-21, 2-amino-6-fluoro-N-(5-fluoro-4-(4-(3-methoxyazetidine-1-carbonyl)piperidin-1-yl)pyridin-3-yl)pyrazolo[1,5-a]pyrimidine-3-carboxamide]	+++ (Compounds with a Cisplatin sensitization value of <0.02 μM are marked with “+++.”)
CN(C)C1CN(C(=O)C2CCN(c3c(F)cncc3NC(=O)c3c(N)nn4cc(F)cnc34)CC2)C1 [I-G-22, 2-amino-N-(4-(4-(3-(dimethylamino)azetidine-1-carbonyl)piperidin-1-yl)-5-fluoropyridin-3-yl)-6-fluoropyrazolo[1,5-a]pyrimidine-3-carboxamide]	+++ (Compounds with a Cisplatin sensitization value of <0.02 μM are marked with “+++.”)
CN1CC(NC(=O)C2CCN(c3c(F)cncc3NC(=O)c3c(N)nn4cc(F)cnc34)CC2)C1 [I-G-23, 2-amino-6-fluoro-N-(5-fluoro-4-(4-((1-methylazetidin-3-yl)carbamoyl)piperidin-1-yl)pyridin-3-yl)pyrazolo[1,5-a]pyrimidine-3-carboxamide]	+++ (Compounds with a Cisplatin sensitization value of <0.02 μM are marked with “+++.”)
CN1CCC(NC(=O)C2CCN(c3c(F)cncc3NC(=O)c3c(N)nn4cc(F)cnc34)CC2)C1 (stereo not drawn) [I-G-24, 2-amino-6-fluoro-N-(5-fluoro-4-(4-((1-methylpyrrolidin-3-yl)carbamoyl)piperidin-1-yl)pyridin-3-yl)pyrazolo[1,5-a]pyrimidine-3-carboxamide]	+++ (Compounds with a Cisplatin sensitization value of <0.02 μM are marked with “+++.”)
CN1CCN(C(=O)C2(C#N)CCN(c3c(F)cncc3NC(=O)c3c(N)nn4cc(F)cnc34)CC2)CC1 [I-G-25, 2-amino-N-(4-(4-cyano-4-(4-methylpiperazine-1-carbonyl)piperidin-1-yl)-5-fluoropyridin-3-yl)-6-fluoropyrazolo[1,5-a]pyrimidine-3-carboxamide]	+++ (Compounds with a Cisplatin sensitization value of <0.02 μM are marked with “+++.”)
CN(C)CCCNC(=O)C1CCN(c2c(F)cncc2NC(=O)c2c(N)nn3cc(F)cnc23)CC1 [I-G-26, 2-amino-N-(4-(4-((3-(dimethylamino)propyl)carbamoyl)piperidin-1-yl)-5-fluoropyridin-3-yl)-6-fluoropyrazolo[1,5-a]pyrimidine-3-carboxamide]	++ (Compounds with a Cisplatin sensitization value >0.02 μM but <0.2 μM are marked with “++.”)
CC1(C)CN(C(=O)C2CCN(c3c(F)cncc3NC(=O)c3c(N)nn4cc(F)cnc34)CC2)CCN1 [I-G-27, 2-amino-N-(4-(4-(3,3-dimethylpiperazine-1-carbonyl)piperidin-1-yl)-5-fluoropyridin-3-yl)-6-fluoropyrazolo[1,5-a]pyrimidine-3-carboxamide]	++ (Compounds with a Cisplatin sensitization value >0.02 μM but <0.2 μM are marked with “++.”)
Nc1nn2cc(F)cnc2c1C(=O)Nc1cncc(F)c1N1CCC(C(=O)N2CCNC3(CC3)C2)CC1 [I-G-28, N-(4-(4-(4,7-diazaspiro[2.5]octane-7-carbonyl)piperidin-1-yl)-5-fluoropyridin-3-yl)-2-amino-6-fluoropyrazolo[1,5-a]pyrimidine-3-carboxamide]	+++ (Compounds with a Cisplatin sensitization value of <0.02 μM are marked with “+++.”)
CN(C)C(=O)C1CCN(c2c(F)cncc2NC(=O)c2c(N)nn3cc(F)cnc23)CC1 [I-G-29, 2-amino-N-(4-(4-(dimethylcarbamoyl)piperidin-1-yl)-5-fluoropyridin-3-yl)-6-fluoropyrazolo[1,5-a]pyrimidine-3-carboxamide]	+++ (Compounds with a Cisplatin sensitization value of <0.02 μM are marked with “+++.”)
CN(C)CCNC(=O)C1CCN(c2c(F)cncc2NC(=O)c2c(N)nn3cc(F)cnc23)CC1 [I-G-30, 2-amino-N-(4-(4-((2-(dimethylamino)ethyl)carbamoyl)piperidin-1-yl)-5-fluoropyridin-3-yl)-6-fluoropyrazolo[1,5-a]pyrimidine-3-carboxamide]	+++ (Compounds with a Cisplatin sensitization value of <0.02 μM are marked with “+++.”)
CN(C)CCN(C)C(=O)C1CCN(c2c(F)cncc2NC(=O)c2c(N)nn3cc(F)cnc23)CC1 [I-G-31, 2-amino-N-(4-(4-((2-(dimethylamino)ethyl)(methyl)carbamoyl)piperidin-1-yl)-5-fluoropyridin-3-yl)-6-fluoropyrazolo[1,5-a]pyrimidine-3-carboxamide]	+++ (Compounds with a Cisplatin sensitization value of <0.02 μM are marked with “+++.”)
Nc1nn2cc(F)cnc2c1C(=O)Nc1cncc(F)c1N1CCC(C(=O)N2CCN(C3COC3)CC2)CC1 [I-G-32, 2-amino-6-fluoro-N-[5-fluoro-4-[4-[4-(oxetan-3-yl)piperazine-1-carbonyl]-1-piperidyl]-3-pyridyl]pyrazolo[1,5-a]pyrimidine-3-carboxamide]	+++ (Compounds with a Cisplatin sensitization value of <0.02 μM are marked with “+++.”)
CNC(=O)C1CCN(c2c(F)cncc2NC(=O)c2c(N)nn3cc(F)cnc23)CC1 [I-G-33, 2-amino-6-fluoro-N-(5-fluoro-4-(4-(methylcarbamoyl)piperidin-1-yl)pyridin-3-yl)pyrazolo[1,5-a]pyrimidine-3-carboxamide]	+++ (Compounds with a Cisplatin sensitization value of <0.02 μM are marked with “+++.”)
CNC1CN(C(=O)C2CCN(c3c(F)cncc3NC(=O)c3c(N)nn4cc(F)cnc34)CC2)C1 [I-G-34, 2-amino-6-fluoro-N-(5-fluoro-4-(4-(3-(methylamino)azetidine-1-carbonyl)piperidin-1-yl)pyridin-3-yl)pyrazolo[1,5-a]pyrimidine-3-carboxamide]	+++ (Compounds with a Cisplatin sensitization value of <0.02 μM are marked with “+++.”)
Nc1nn2cc(F)cnc2c1C(=O)Nc1cncc(F)c1N1CCC(C(=O)N2CCN(C3CCC3)CC2)CC1 [I-G-35, 2-amino-N-(4-(4-(4-cyclobutylpiperazine-1-carbonyl)piperidin-1-yl)-5-fluoropyridin-3-yl)-6-fluoropyrazolo[1,5-a]pyrimidine-3-carboxamide]	+++ (Compounds with a Cisplatin sensitization value of <0.02 μM are marked with “+++.”)
